The source of these data is US4497803A, “Inclusion compound of lankacidin-group antibiotic and use thereof” (priority 1982, dated 1985).

Series [1] can be described thus: Solubility of C8-P and C14-P in CD solution, shaken one hour (Example 2). It is filed as physicochemical. Here is the method: (§1) Powdery lankacidin C was added to an aqueous solution of cyclodextrin (hereinafter referred to as "CD") to have 4 mg/ml of the lankacidin C contained. After the mixture was stirred with a mixer, it was shaken at 5° C. for 2 hours, and passed through filter paper. The absorbancy of the filtrate was measured at 227-229 nm to determine concentration of the lankacidin C.
Solubilities of lankacidin C 8-propionate (hereinafter referred to as "C8-P"), and lankacidin C 14-propionate (hereinafter referred to as "C14-P") in a solution of CD were measured in the same manner as that of Example 1 except that the shaking was continued for one hour.

A short description of series [2]: Solubility of lankacidin-group in β-CD solution (10^-2 Mol/l), shaken 30 minutes to one hour (Example 4). It is filed as physicochemical. Here is the method: as §1
The solubility of lankacidin-group in a solution of β-CD (10^-2 Mol/l) were measured in the same manner as that of Example 1 except that the shaking was continued for 30 minutes to one hour.

The next series relates to St. aureus 209P. Put plainly: Stability of inclusion compound of lankacidin-group (24° C., for 6 days): antibacterial activity by paper disk assay. The format is cell-based. The note with it: methanol, 1000 μg/ml. Here is the method: The inclusion compound of the present invention is stable in an aqueous solution, although it splits into lankacidin-group moiety and cyclodextrins moiety, when it is in the form of solution or powder, by contacting it with organic solvents (e.g., ethyl acetate, methyl isobutyl ketone) or various carriers (e.g., silica gel, high-porous resins). […] In comparing the antibacterial activity, concentrations of the inclusion compound are calculated in terms of lankacidin-group compound from which the inclusion compound is prepared.
Stability of inclusion compound of lankacidin-group
*1 Paper disk assay using Trypticase soy agar (Baltimore Biologicals Ltd.
U.S.A.) as test culture media.
*2 1000 μg/ml, Lankacidingroup is stable in methanol.
*3 Aqueous solution of the inclusion compound with cyclodextrin (1000
μg/ml calculated in terms of lankacidingroup)

Series [3] can be described thus: Solubility of inclusion compound in water. The format is physicochemical. Here is the method: The lankacidin-group is added to each of solutions containing various amounts of cyclodextrin. The minimum concentration of cyclodextrin which dissolves the maximum amount of the lankacidin-group compound and practical concentrations thereof are determined on the basis of amounts of the lankacidin-group compound dissolved in the cyclodextrin solutions. Then, the molar ratio of cyclodextrin to lankacidin-group compound is calculated by the following equation:
Molar ratio=[Molarity of cyclodextrin]:[(Saturation molarity of lankacidin-group compound in a certain concentration of cyclodextrin-solution)-(saturation molarity of lankacidin-group compound in an aqueous solution)].
Moreover, a large amount of the present inclusion compound is dissolved in water and it is kept stably therein. Solubility of the inclusion compound in water is greater than that of landacidin-group compounds in water, when the amount of the inclusion compound dissolved is calculated in terms of lankacidin-group compound, and than saturation concentration of cyclodextrin in water so far as cyclodextrin contained in the inclusion compound is concerned (Table 2).
(1) Solubility of lankacidingroup in water.
(2) Solubility of lankacidingroup in M/100 cyclodextrin solution.
(3) Concentration of cyclodextrin of (2).
(4) Solubility (maximum) of the present inclusion compound (calculated in
terms of lankacidingroup contained) in water.
(5) Concentration of cyclodextrin contained in the inclusion compound of […]

The nature of series [4]: Solubility in β-CD solution, shaken 16 hours (Example 3). It is filed as physicochemical. Here is the method: as §1
The solubilities of lankacidin A, lankacidin C and lankacidinol in a β-CD solution were measured in the same manner as that of Example 1 except that the shaking was continued for 16 hours.

Where [5] appears, read: aqueous β-cd solution, β-CD 10^-2 Mol/l.
[6] abbreviates: aqueous β-cd solution, β-CD 10^-3 Mol/l.
The mark [7] stands for this setting: aqueous β-cd solution, β-CD 10^-4 Mol/l.
The mark [8] stands for this setting: aqueous γ-cd solution, γ-CD 10^-2 Mol/l.
Setting [9] is: aqueous γ-cd solution, γ-CD 10^-3 Mol/l.
[10] abbreviates: aqueous γ-cd solution, γ-CD 10^-4 Mol/l.
The mark [11] stands for this setting: aqueous β-cyclodextrin solution, β-CD 10^-2 Mol/l, read-out: Solubility.
Where [12] appears, read: β-CD 0 Mol/l (water), read-out: Solubility.
[13] abbreviates: aqueous β-cyclodextrin solution.

Values after ≈ are worked out from the molar mass of the structure shown. Read-outs that look alike come from different tables or passages of the source.

With `CCC(=O)OC1C=CC(C)=CC(NC(=O)C(C)=O)C2(C)C(=O)OC(CC(O)C=CC(C)=CC1)C(C)C2=O` (centres unmarked) [C8-P, lankacidin C 8-propionate], in series [1] (CD solutions), the “Solubility in CD solution, C8-P compared with C14-P” value is reported as “better solubility than that of C14-P”. The solubility at 1 h in series [1] (setting [5]) was 3840 µg/mL (≈ 7450 µM); in series [1] (setting [6]), 328 µg/mL (≈ 636 µM); in series [1] (setting [7]), 46 µg/mL (≈ 89.2 µM); in series [1] (setting [8]), 1610 µg/mL (≈ 3120 µM); in series [1] (setting [9]), 249 µg/mL (≈ 483 µM); in series [1] (setting [10]), 54 µg/mL (≈ 105 µM). Besides, the solubility at 1 h in series [1] (water, β-CD, CD 0 Mol/l) was found to be 18 µg/mL (≈ 34.9 µM); in series [1] (water, γ-CD, CD 0 Mol/l) it was 19 µg/mL (≈ 36.9 µM).
Regarding `CCC(=O)OC1C=CC(C)=CCC(O)C=CC(C)=CC(NC(=O)C(C)=O)C2(C)C(=O)OC(C1)C(C)C2=O` (centres unmarked) [C14-P, lankacidin C 14-propionate], the solubility at 1 h in series [1] (setting [5]) was 159 µg/mL (≈ 308 µM); in series [1] (setting [6]), 67 µg/mL (≈ 130 µM); in series [1] (setting [7]), 21 µg/mL (≈ 40.7 µM); in series [1] (setting [8]) it was 273 µg/mL (≈ 529 µM); in series [1] (setting [9]), 114 µg/mL (≈ 221 µM); in series [1] (setting [10]), 35 µg/mL (≈ 67.9 µM). Moreover, the solubility at 1 h in series [1] (water, β-CD, CD 0 Mol/l) was 19 µg/mL (≈ 36.9 µM); in series [1] (water, γ-CD, CD 0 Mol/l), 19 µg/mL (≈ 36.9 µM).
As to `CC(=O)OC1C=CC(C)=CC(NC(=O)C(C)=O)C2(C)C(=O)OC(CC(OC(C)=O)C=CC(C)=CC1)C(C)C2=O` (centres unmarked) [Lankacidin C 8,14-diacetate, lankacidin C 8,14-diacetate], the solubility was found to be 681 µg/mL (≈ 1250 µM) in series [2] (setting [11]) and 16.2 µg/mL (≈ 29.8 µM) in series [2] (setting [12]). The “ratio: Solubility in a 10^-2 Mol/l solution of CD/solubility in water” value (shortened to “ratio: Solubility”) in series [2] (β-CD 10^-2 Mol/l vs water) worked out at 42.0.
In the case of `CC(=O)OC1C=CC(C)=CC(NC(=O)C(C)=O)C2(C)C(=O)OC(CC(O)C=CC(C)=CC1)C(C)C2=O` (centres unmarked) [Lankacidin C 8-acetate, lankacidin C 8-acetate], the values for the solubility in series [2] (setting [11]) and in series [2] (setting [12]) were 2770 µg/mL (≈ 5520 µM) and 74.3 µg/mL (≈ 148 µM), respectively. In addition, the “ratio: Solubility” value in series [2] (β-CD 10^-2 Mol/l vs water) was determined as 37.3.
As for `CCCC(=O)OC1C=CC(C)=CC(NC(=O)C(C)=O)C2(C)C(=O)OC(CC(O)C=CC(C)=CC1)C(C)C2=O` (centres unmarked) [Lankacidin C 8-butylate], the results for the solubility in series [2] (setting [11]) and in series [2] (setting [12]) were 404 µg/mL (≈ 763 µM) and 9 µg/mL (≈ 17 µM), respectively. In series [2] (β-CD 10^-2 Mol/l vs water), the “ratio: Solubility” value is 44.9.
The corresponding values for `CCCC(=O)OC1C=CC(C)=CCC(O)C=CC(C)=CC(NC(=O)C(C)=O)C2(C)C(=O)OC(C1)C(C)C2=O` (centres unmarked) [Lankacidin C 14-butylate] are 118 µg/mL (≈ 223 µM), 17 µg/mL (≈ 32.1 µM) and 6.94.
In the case of `CC(=O)OC1C=CC(C)=CC(NC(=O)C(C)OC(C)=O)C2(C)C(=O)OC(CC(OC(C)=O)C=CC(C)=CC1)C(C)C2=O` (centres unmarked) [Lankacidinol 2',8,14-triacetate], the “ratio: Solubility” value in series [2] is listed as 9.0. For the same compound, the solubility in series [2] (setting [13]) is 332 µg/mL (≈ 565 µM); in series [2] (water) it was 36.9 µg/mL (≈ 62.8 µM).
As to `CC(=O)OC1C=CC(C)=CC(NC(=O)C(C)O)C2(C)C(=O)OC(CC(OC(C)=O)C=CC(C)=CC1)C(C)C2=O` (centres unmarked) [Lankacidinol 8,14-diacetate], the solubility in series [2] (setting [11]) came to 1780 µg/mL (≈ 3260 µM); in series [2] (setting [12]) it was 440 µg/mL (≈ 806 µM). For the same compound, the “ratio: Solubility” value in series [2] (β-CD 10^-2 Mol/l vs water) is 4.05.
In the same order, the values of `CC(=O)OC1C=CC(C)=CCC(O)C=CC(C)=CC(NC(=O)C(C)O)C2(C)C(=O)OC(C1)C(C)C2=O` (centres unmarked) [Lankacidinol A, lankacidinol A] are 3070 µg/mL (≈ 6100 µM), 170 µg/mL (≈ 338 µM) and 18.1.
Take `CC1=CCC(O)C=CC(C)=CC(NC(=O)C(C)O)C2(C)C(=O)OC(CC(O)C=C1)C(C)C2=O` (centres unmarked) [Lankacidinol, lankacidinol]: the “Antibacterial activity, inhibition diameter” value with St. aureus 209P (0 day) turned out to be 25.75 mm; in the series with St. aureus 209P (3 days at 24° C.) it was 27.0 mm; with St. aureus 209P (6 days at 24° C.) it was 30.0 mm. The solubility in series [3] (m/100 cyclodextrin solution, M/100 cyclodextrin, (3) cyclodextrin 11.3 mg/ml, read-out: (2) Solubility of lankacidin-group in M/100 cyclodextrin solution) worked out at 3780 µg/mL (≈ 8190 µM); in series [3] (water, read-out: (1) Solubility of lankacidin-group in water), 655 µg/mL (≈ 1420 µM). In addition, the solubility at 16 h in series [4] (aqueous β-cd solution, β-CD 2 × 10^-3 Mol/l) is 1360 µg/mL (≈ 2950 µM); in series [4] (aqueous β-cd solution, β-CD 5 × 10^-3 Mol/l), 2130 µg/mL (≈ 4610 µM); in series [4] (setting [5]) it was 2750 µg/mL (≈ 5960 µM); in series [4] (setting [6]), 914 µg/mL (≈ 1980 µM); in series [4] (water, β-CD 0 Mol/l), 444 µg/mL (≈ 962 µM). For the same compound, the “Solubility in β-CD solution as function of β-CD concentration” value in series [4] (from the vicinity of 10^-3 Mol/l of β-CD) was “increase in proportion to the concentration of β-CD”.
As for `CC1=CCC(O)C=CC(C)=CC(NC(=O)C(C)O)C(C)C(=O)C(C)=CCC(O)C=C1` (centres unmarked) [Lankacyclinol, lankacyclinol], the “ratio: Solubility” value in series [2] is on record as 4.38. The solubility in series [2] (setting [13]) came out at 3610 µg/mL (≈ 8650 µM); in series [2] (water), 824 µg/mL (≈ 1970 µM).
Take `OC[C@H]1O[C@@H]2O[C@H]3[C@H](O)[C@@H](O)[C@@H](O[C@H]4[C@H](O)[C@@H](O)[C@@H](O[C@H]5[C@H](O)[C@@H](O)[C@@H](O[C@H]6[C@H](O)[C@@H](O)[C@@H](O[C@H]7[C@H](O)[C@@H](O)[C@@H](O[C@H]8[C@H](O)[C@@H](O)[C@@H](O[C@H]1[C@H](O)[C@H]2O)O[C@@H]8CO)O[C@@H]7CO)O[C@@H]6CO)O[C@@H]5CO)O[C@@H]4CO)O[C@@H]3CO` [cyclodextrin, β-cyclodextrin]: the “Concentration of cyclodextrin in its saturated aqueous solution” value in series [3] (water) was 1000 µg/mL.
Turning to Iso-lankacidinol, the solubility in series [2] (β-CD 0 Mol/l (water)) worked out at 796 µg/mL; in series [2] (β-CD 10^-2 Mol/l) it was 3200 µg/mL. The “ratio: Solubility” value in series [2] (β-CD 10^-2 Mol/l vs water) is recorded as 4.02.
